pIC50: −log10 of the molar value. Where “and” joins values, the source holds several entries; their conditions need not be identical. Equal entries are not always repeated. Residues, ends and D or L forms follow the SMILES beside them. *: point of attachment. pNA = O=[N+]([O-])c1ccc(N*)cc1; Boc = CC(C)(C)OC(=O)*
biological target: Nonstructural protein 3 (Zika virus, UniProt A0A024AXB9); test: Functional biochemical assay to identify treatments for viral infectious disease that targets Zika NS2B-NS3 protease. Utilizing a direct enzyme activity measurement method, reading the fluorescence intensity is used to characterize the relative potency of inhibitors as IC50.; design: species or system PRVABC59
Sequence (A0A024AXB9 whole entry): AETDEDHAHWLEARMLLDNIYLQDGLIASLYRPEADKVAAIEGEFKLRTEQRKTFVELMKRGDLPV

Row | SMILES | pIC50
1 | Cc1cc(C(=O)Nc2cccc(CN)c2)c2c(C)nn(CC(=O)NC(C)C)c2n1 | < 4.00
2 | O=C(O)c1c(NS(=O)(=O)c2ccc(Oc3ccccc3Cl)cc2)ccc(Cl)c1F | 4.27
3 | NCc1cccc(NC(=O)c2cc(NC(=O)OCc3ccccc3)cc(C(F)(F)F)c2)c1 | 4.84
4 | NCCc1ccc(NC(=O)c2cc(Cl)cc(CN)c2)cc1 | 5.09
5 | CCn1ccnc(N(C)[C@@H](CO)Cc2c[nH]c3ccccc23)c1=O | < 4.00
6 | O=C(Nc1cc([C@H]2CCOC2)ccn1)c1cc(Br)cc2[nH]ccc12 | < 4.60
7 | CC(C)c1cc(NC(=O)OCc2ccccc2)cc(C(=O)Nc2cccc(CN)c2)c1 | 4.70
8 | CN(C)Cc1ccc(CNC(=O)[C@@H](NC(=O)OCc2ccccc2)c2ccc(OCc3ccccc3)cc2)cc1 | < 4.00
9 | CCNC(=O)Nc1cc(Cl)cc(C(=O)Nc2ccc([C@H](CC)Cc3nnn[nH]3)cc2)c1 | < 4.00
10 | Cc1nnnn1Cc1ncc(Br)s1 | < 4.00
11 | Cc1cc(C(=O)Nc2ccc3c(c2)CNC3)cc2nc[nH]c12 | 6.92
12 | Clc1ccc2[nH]cc(Cc3ccc(-c4nn[nH]n4)cc3)c2c1 | < 4.00
13 | Cn1cc(NC(=O)c2cc(Cl)cc(NC(=O)OCc3ccccc3)c2)cn1 | < 4.00
14 | O=C(c1cc(Cl)ccc1NS(=O)(=O)c1ccc(Oc2ccccc2Cl)cc1)N1CCNCC1 | < 4.00
15 | O=C(Nc1ccc2c(c1)CNC2)c1cc(Cl)cc2[nH]c(-c3cc(C4CC4)[nH]n3)nc12 | 7.10 and 7.54 and 7.21
16 | O=C(O)c1cc(Cl)ccc1S(=O)(=O)Nc1ccc(CN2CCCCC2)cc1 | < 4.00
17 | Cn1cc([C@@H]2C[C@H](C(=O)Nc3cccc(CN)c3)CC(=O)N2)cn1 | < 4.00
18 | O=C(Cn1ccnc(N2CC[C@H](CO)C2)c1=O)NCc1nccs1 | < 4.00
19 | c1cnc2c(c1)CC[C@@H]2NCc1n[nH]c2ccccc12 | < 4.00
20 | Cn1ccnc1S(=O)(=O)N[C@@H](C(=O)Nc1cccc(CN)c1)c1ccc(OCc2ccccc2)cc1 | < 4.00
21 | N#Cc1ccc(Cl)c(C(=O)Nc2ccc3c(c2)CNC3)c1 | 5.70
22 | NCc1cccc(NC(=O)c2cc(Br)cc(-n3cnnn3)c2)c1 | 5.15
23 | COc1cc(Cc2c(-c3ccc(F)cc3)noc2C)nc(N2CCNCC2)n1 | 4.15
24 | COc1ccc(S(=O)(=O)Nc2cc(F)c(Cl)cc2C(=O)O)cc1 | < 4.00
25 | O=C(NCCc1nc2ccccc2[nH]1)c1cc2ccc(F)cc2s1 | < 4.00
26 | Clc1snnc1CN1CCC(c2nc3ccccc3o2)CC1 | < 4.00

Row | SMILES | pIC50
27 | O=C(Nc1cc([C@H]2CCOC2)ccn1)c1cc(Cl)cc2c1CCC2 | < 4.60
28 | O=C(/C=C/c1ccccc1)C(=O)N1CCOCC1 | < 3.70
29 | COc1ccc(CN2Cc3cc(NC(=O)c4cc(Cl)cc5[nH]ncc45)cc(Br)c3C2)cc1 | 5.00
30 | NCc1cccc(NC(=O)[C@@H]2CCCCN2)c1 | < 4.00
31 | O=C(NCc1cccnc1)[C@H](Nc1ccc2c(c1)CNC2)c1cc(Cl)cc2[nH]ncc12 | 6.91
32 | O=C(Nc1ccc2c(c1)CNC2)c1cc(F)cc(-c2cnc3n2CCC3)c1 | 6.63
33 | CC(C)c1nc2c(C(=O)Nc3cccc(-c4nnn[nH]4)c3)cccc2[nH]1 | < 4.00
34 | CCCCCC(=O)N[C@H](C(=O)NCc1ccc(NC(=N)N)cc1)c1ccc(OCc2ccccc2)cc1 | < 4.00
35 | NCc1cccc(NC(=O)[C@@H](NC(=O)OCc2ccccc2)c2ccc(-c3ccncc3F)cc2)c1 | 4.41
36 | NCc1cccc(NC(=O)[C@H]2[C@H]3CCCC[C@H]3[C@@H]2NC(=O)OCc2ccccc2)c1 | 4.03
37 | OC[C@H]1CCN(c2ccnc(C(F)F)c2)C1 | < 4.00
38 | COc1ccc(S(=O)(=O)n2nc(OC(=O)c3cccc(-c4ccccc4Cl)c3)cc2N)cc1 | 6.74
39 | CCCN1C(=O)[C@](Nc2ccc3c(c2)CNC3)(C(=O)NC)c2ccccc21 | < 4.60
40 | N#C[C@H](Nc1ccc2c(c1)CNC2)c1ccnc(C(F)(F)F)c1 | < 4.60
41 | O=C(O)c1cc(Cl)ccc1S(=O)(=O)NC1CCN(c2ncnc3c2CCC3)CC1 | < 4.00
42 | CCOC(=O)N1CCC[C@H]1c1cccc(-c2ccc3[nH]c(C(=O)O)cc3c2)c1 | < 4.00
43 | NCc1cc(C(F)(F)F)cc(-c2ccc3[nH]c(C(=O)O)cc3c2)n1 | < 4.00
44 | O=C(Nc1cc(Cl)cc(S(=O)(=O)Nc2cccc(-n3nn[nH]c3=O)c2)c1)OCc1ccccc1 | < 4.00
45 | NCc1cccc(NC(=O)c2cc(C3CC3)nn2-c2ccccc2)c1 | < 4.00
46 | CCn1ccnc(N2CC[C@H](C#N)C2)c1=O | < 4.00
47 | O=C(Nc1ccc2c(c1)CNC2)c1cc(C(F)(F)F)cc2[nH]ccc12 | 5.97
48 | Cc1c(C(=O)Nc2cccc(Cn3ccccc3=O)c2)cc(C2CC2)n1C | < 4.60
49 | O=C(Nc1ccc2c(c1)CNC2)c1cc(Cl)cc2c1cnn2C[C@H]1CCCO1 | 6.87
50 | NCc1ccc(/C=C/C(=O)C(=O)N2CCOCC2)cc1 | 4.10
51 | Cn1cc(C(F)(F)F)nc1C(=O)Nc1cc(-c2cccnc2)ccn1 | < 4.60
52 | CS(=O)(=O)Nc1c(Cl)cc(Cl)cc1C(=O)Nc1cccc(CN)c1 | < 4.00

Row | SMILES | pIC50
53 | O=C(Nc1cc(Cl)cc(C(=O)Nc2ccc3c(c2)C[C@H](O)C3)c1)OCc1ccccc1 | < 4.00
54 | O=C(O)c1cc(Cl)ccc1S(=O)(=O)Nc1ccc(F)c(NC(=O)C2CC2)c1 | < 4.00
55 | O=C(O)c1cc2cc(-c3cccc([C@H]4COCCN4)c3)ccc2[nH]1 | < 4.00
56 | NC1CCN(c2ccc(NC(=O)c3cc(Cl)cc(NC(=O)OCc4ccccc4)c3)cc2)CC1 | 5.14
57 | NCc1cccc(NC(=O)[C@H](NC(=O)c2ccncc2)c2ccc(OCc3ccccc3)cc2)c1 | < 4.00
58 | CCc1cc(C(=O)Nc2cccc(-c3nnn[nH]3)c2)nn1-c1ccccc1 | < 4.00
59 | O=C1Cc2c(cccc2C(=O)NCC2(F)CC3(CCOCC3)C2)N1 | < 4.60
60 | CNC(=O)[C@H](Nc1cccc(C2(C(=O)O)CCC2)c1)c1cc(Cl)cc(C2CC2)c1 | < 4.00
61 | O=C(Nc1cc2c(cc1Br)CNC2)c1cc(Cl)cc2[nH]ncc12 | 7.29 and 7.47
62 | COc1cc2c(CN3CCC(c4cscn4)CC3)c[nH]c2cc1Cl | 4.30
63 | Cc1noc(C)c1-c1ccc([C@@H](NC(=O)OCc2ccccc2)C(=O)Nc2cccc(CN)c2)cc1 | 4.24
64 | CSCC[C@H](NC(=O)OC(C)(C)C)C(=O)N1CCC[C@H]1C(=O)Nc1ccc([N+](=O)[O-])cc1 (Boc-Met-Pro-pNA) | < 4.00
65 | Clc1cc([C@H](C#CC2CC2)Nc2ccc3c(c2)CNC3)c2cn[nH]c2c1 | 5.87
66 | O=C(NCC(F)F)[C@H](Nc1ccc2c(c1)CNC2)c1cc(Cl)cc2[nH]ncc12 | 6.54
67 | O=C(O)c1cscc1NS(=O)(=O)c1ccc(Oc2ccccc2Cl)cc1 | < 4.00
68 | Cn1cc(CN2CCC(c3c[nH]c4cccnc34)CC2)c2ccccc21 | < 4.00
69 | O=C(NC[C@H]1CCCO1)c1cc(Cl)ccc1NS(=O)(=O)c1ccc(Oc2ccccc2Cl)cc1 | < 4.00
70 | Cc1cc(CC(=O)O)ccc1Cc1c[nH]c2ccc(Cl)cc12 | < 4.00
71 | Cc1cc(CN)cc(NC(=O)c2cccc3c2CC(=O)N3)c1 | 5.52
72 | Nc1nc2ccc(NC(=O)c3cc(Cl)cc(NC(=O)OCc4ccccc4)c3)cc2[nH]1 | < 4.00
73 | CN(C)Cc1cc(NC(=O)c2cc(Cl)cc(NC(=O)OCc3ccccc3)c2)sn1 | < 4.00
74 | C[C@@H](NC(=O)c1cc(Cl)ccc1NS(=O)(=O)c1ccc(Oc2ccccc2Cl)cc1)C(=O)O | < 4.00
75 | O=C1Cc2c(cccc2C(=O)Nc2ccc3c(c2)CNCC3)N1 | 5.52
76 | O=c1ccc(-n2cncn2)nn1CC=Cc1ccccc1 | < 4.00
77 | O=C(Nc1cc(Cl)cc([C@H]2C[C@@H]2c2cccc(-c3nnn[nH]3)c2)c1)OCc1ccccc1 | 4.56
78 | C[C@]1(OCCCO)C(=O)Nc2cc(F)cc(C(=O)Nc3ccc4c(c3)CNC4)c21 | 6.11

Row | SMILES | pIC50
79 | O=C1Cc2cc(NC(=O)c3cc(Cl)cc4[nH]ncc34)ccc2N1 | < 4.00
80 | O=C(Nc1cc(Cl)cc(C(=O)NC[C@@]23CN[C@H](CCO2)C3)c1)OCc1ccccc1 | < 4.00
81 | CC(C)(C)Oc1ccc(S(=O)(=O)Nc2ccc(Cl)cc2C(=O)O)cc1 | < 4.00
82 | O=C(Cn1ccnc(N2CC[C@H](CO)C2)c1=O)NCc1cc[nH]n1 | < 4.00
83 | O=C(Nc1cc(-c2cccnc2)ccn1)c1csc(C[C@H]2CCCNC2)n1 | < 4.60
84 | N=C(N)NCc1ccc(NC(=O)Oc2ccccc2)cc1 | < 4.00
85 | NC(=O)N1CCc2ccc(NC(=O)c3cccc4c3CC(=O)N4)cc21 | < 4.60
86 | COCCNC(=O)[C@H](Nc1cccc([C@H]2CCOC2)c1)c1cc(F)cc2[nH]ccc12 | < 4.60
87 | CC(C)[C@H](NC(=O)c1cc(Cl)cc(NC(=O)OCc2ccccc2)c1)c1nn[nH]n1 | < 4.00
88 | O=C(O)c1cc2cc(-c3cc(Cl)c4[nH]c(=O)oc4c3)ccc2[nH]1 | 4.04
89 | C[C@](O)(Cc1cc(Cl)cc(NC(=O)OCc2ccccc2)c1)c1cccc(CN)c1 | < 4.00
90 | O=C(Nc1ccc2c(c1)CNC2)c1cc(F)cc(-c2cnc(C3CC3)s2)c1 | 7.25 and 7.37
91 | CCc1cc(Cl)cc(C(=O)Nc2ccc3c(c2)CNC3)c1 | 6.34
92 | N[C@H]1CC[C@H](NC(=O)[C@@H](NC(=O)OCc2ccccc2)c2ccc(OCc3ccccc3)cc2)CC1 | < 4.00
93 | CNC(=O)C[C@H](Nc1ccccn1)c1cc(Cl)cc(Br)c1 | < 4.00
94 | NCc1cccc(NC(=O)[C@@H](NC(=O)OCc2ccccc2)C2CCN(S(=O)(=O)[C@H]3CCOC3)CC2)c1 | < 4.00
95 | Brc1ccsc1CSc1cnn[nH]1 | < 4.00
96 | Cc1c(C(=O)Nc2cccc(C3CCOCC3)c2)cc(C2CC2)n1C | < 4.60
97 | NCc1cccc(NC(=O)CN2CCN(C(=O)OCc3ccccc3)CC2)c1 | < 4.00
98 | O=C(O)c1cc(Cl)ccc1S(=O)(=O)NC1CCN(c2ccc(C(F)(F)F)cn2)CC1 | < 4.00
99 | O=C(O)c1cccc(NC(=O)c2cccc(OCc3c(Cl)cccc3Cl)c2)c1 | < 4.00
100 | O=C(O)c1cc(Cl)ccc1S(=O)(=O)N[C@H]1CC[C@H]2CN(Cc3ccccc3)C[C@H]2C1 | < 4.00
101 | Cc1c(C(=O)Nc2cc(C(=O)N3CC[C@H]3CO)ccn2)cc(C2CC2)n1C | < 4.60
102 | O=C(O)c1cc2cc(-c3cccc([C@H]4CNCCO4)c3)ccc2[nH]1 | < 4.00
103 | NCc1cccc(NC(=O)c2cc(N)cc(Cl)c2)c1 | 4.40
104 | O=C(Nc1cc(Cl)cc(C(=O)NCC2(CO)CCNCC2)c1)OCc1ccccc1 | < 4.00

Source: ChEMBL document CHEMBL5604062, “ASAP - ZIKV NS2B-NS3 protease fluorescence dose response” (2024)
